Legend:
DU145 cells = assay: Proliferation assay DU145; format: cell-based, human; details: Homo sapiens, DU-145, 96 h, 4 days, crystal violet; read-out: Inhibition of DU145 cell proliferation IC50
Protocol: Cultivated tumour cells (HeLa, human cervical tumour cells, ATCC CCL-2; NCI-H460, human non-small cell lung carcinoma cells, ATCC HTB-177; A2780, human ovarian carcinoma cells, ECACC #93112519; DU 145, hormone-independent human prostate carcinoma cells, ATCC HTB-81; HeLa-MaTu-ADR, multidrug-resistant human cervical carcinoma cells, EPO-GmbH Berlin; Caco-2, human colorectal carcinoma cells, ATCC HTB-37; B16F10, mouse melanoma cells, ATCC CRL-6475) were plated at a density of 5,000 cells/well (DU145, HeLa-MaTu-ADR), 3,000 cells/well (NCI-H460, HeLa), 2,500 cells/well (A2780), 1,500 cells/well (Caco-2), or 1,000 cells/well (B16F10) in a 96-well multititer plate in 200 μL of their respective growth medium supplemented 10% fetal calf serum. After 24 hours, the cells of one plate (zero-point plate) were stained with crystal violet (see below), while the medium of the other plates was replaced by fresh culture medium (200 μl), to which the test substances were added in various concentrations (0 μM, as well as in the range of 0.001-10 μM). The cells were incubated for 4 days in the presence of test substances. Cell proliferation was determined by staining the cells with crystal violet: the cells were fixed by adding 20 μl/measuring point of an 11% glutaric aldehyde solution for 15 minutes at room temperature. After three washing cycles of the fixed cells with water, the plates were dried at room temperature. The cells were stained by adding 100 μl/measuring point of a 0.1% crystal violet solution (pH 3.0). After three washing cycles of the stained cells with water, the plates were dried at room temperature. The dye was dissolved by adding 100 μl/measuring point of a 10% acetic acid solution. The extinction was determined by photometry at a wavelength of 595 nm. The change of cell number, in percent, was calculated by normalization of the measured values to the extinction values of the zero-point plate (=0%) and the extinction of the untreated (0 μm) cells (=100%). The IC50 values (inhibitory concentration at 50% of maximal effect) were determined by means of a 4 parameter fit. Non-adherent MOLM-13 human acute myeloid leukemia cells (DSMZ ACC 554) were seeded at a density of 5,000 cells/well in a 96-well multititer plate in 100 μL of growth medium supplemented 10% fetal calf serum. After 24 hours, cell viability of one plate (zero-point plate) was determined with the Cell Titre-Glo Luminescent Cell Viability Assay (Promega), while 50 μL of test compound containing medium was added to the wells of the other plates (final concentrations in the range of 0.001-1 μM and DMSO controls). Cell viability was assessed after 72-hour exposure with the Cell Titre-Glo Luminescent Cell Viability Assay (Promega). IC50 values (inhibitory concentration at 50% of maximal effect) were determined by means of a 4 parameter fit on measurement data which were normalized to vehicle (DMSO) treated cells (=100%) and measurement readings taken immediately before compound exposure (=0%).

CDK9/CycT1 = target: T1, CDK9/CycT1 (Homo sapiens, UniProt P50750); assay: CDK9/CycT1 high ATP kinase assay (TR-FRET, Method 1b); format: biochemical; details: for IC50: Method 1b, 2 mM ATP; for Selectivity high ATP CDK9 over high ATP CDK2: IC50 (high ATP CDK2)/IC50 (high ATP CDK9): Methods 1b and 2b, minimal values where CDK9 IC50 is at the assay limit
T1 construct: Recombinant full-length His-tagged human CDK9 and CycT1; His; purchased Invitrogen PV4131; host or cells: insect cells
Protocol: 1b. CDK9/CycT1 High ATP Kinase Assay
CDK9/CycT1-inhibitory activity of compounds of the present invention at a high ATP concentration after preincubation of enzyme and test compounds was quantified employing the CDK9/CycT1 TR-FRET assay as described in the following paragraphs.
Recombinant full-length His-tagged human CDK9 and CycT1, expressed in insect cells and purified by Ni-NTA affinity chromatography, were purchase from Invitrogen (Cat. No PV4131). As substrate for the kinase reaction biotinylated peptide biotin-Ttds-YISPLKSPYKISEG (C-terminus in amid form) was used which can be purchased e.g. from the company JERINI peptide technologies (Berlin, Germany). For the assay 50 nl of a 100 fold concentrated solution of the test compound in DMSO was pipetted into a black low volume 384 well microtiter plate (Greiner Bio-One, Frickenhausen, Germany), 2 μl of a solution of CDK9/CycT1 in aqueous assay buffer [50 mM Tris/HCl pH 8.0, 10 mM MgCl2, 1.0 mM dithiothreitol, 0.1 mM sodium ortho-vanadate, 0.01% (v/v) Nonidet-P40 (Sigma)] were added and the mixture was incubated for 15 min at 22° C. to allow pre-binding of the test compounds to the enzyme before the start of the kinase reaction. […] The concentration of CDK9/CycT1 was adjusted depending of the activity of the enzyme lot and was chosen appropriate to have the assay in the linear range, typical concentrations were in the range of 0.5 μg/mL. The reaction was stopped by the addition of 5 μl of a solution of TR-FRET detection reagents (0.2 μM streptavidine-XL665 [Cisbio Bioassays, Codolet, France] and 1 nM anti-RB(pSer807/pSer811)-antibody from BD Pharmingen [#558389] and 1.2 nM LANCE EU-W1024 labeled anti-mouse IgG antibody [Perkin-Elmer, product no. AD0077]) in an aqueous EDTA-solution (100 mM EDTA, 0.2% (w/v) bovine serum albumin in 100 mM HEPES pH 7.5).
The resulting mixture was incubated 1 h at 22° C. to allow the formation of complex between the phosphorylated biotinylated peptide and the detection reagents. Subsequently the amount of phosphorylated substrate was evaluated by measurement of the resonance energy transfer from the Eu-chelate to the streptavidine-XL. Therefore, the fluorescence emissions at 620 nm and 665 nm after excitation at 350 nm was measured in a HTRF reader, e.g. a Rubystar (BMG Labtechnologies, Offenburg, Germany) or a Viewlux (Perkin-Elmer). The ratio of the emissions at 665 nm and at […] was taken as the measure for the amount of phosphorylated substrate. The data were normalised (enzyme reaction without inhibitor=0% inhibition, all other assay components but no enzyme=100% inhibition).

T1 sequence (P50750 whole entry): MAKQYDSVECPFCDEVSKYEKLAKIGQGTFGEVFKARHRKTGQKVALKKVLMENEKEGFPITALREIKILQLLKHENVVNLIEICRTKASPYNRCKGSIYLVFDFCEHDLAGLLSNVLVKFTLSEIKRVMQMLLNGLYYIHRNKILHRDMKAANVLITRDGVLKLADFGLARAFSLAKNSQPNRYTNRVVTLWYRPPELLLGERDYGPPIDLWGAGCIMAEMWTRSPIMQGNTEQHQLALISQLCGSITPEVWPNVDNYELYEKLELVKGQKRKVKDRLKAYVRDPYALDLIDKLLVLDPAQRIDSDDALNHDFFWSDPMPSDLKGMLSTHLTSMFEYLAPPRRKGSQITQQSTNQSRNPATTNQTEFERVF
T1 sequence (O60563 whole entry partner): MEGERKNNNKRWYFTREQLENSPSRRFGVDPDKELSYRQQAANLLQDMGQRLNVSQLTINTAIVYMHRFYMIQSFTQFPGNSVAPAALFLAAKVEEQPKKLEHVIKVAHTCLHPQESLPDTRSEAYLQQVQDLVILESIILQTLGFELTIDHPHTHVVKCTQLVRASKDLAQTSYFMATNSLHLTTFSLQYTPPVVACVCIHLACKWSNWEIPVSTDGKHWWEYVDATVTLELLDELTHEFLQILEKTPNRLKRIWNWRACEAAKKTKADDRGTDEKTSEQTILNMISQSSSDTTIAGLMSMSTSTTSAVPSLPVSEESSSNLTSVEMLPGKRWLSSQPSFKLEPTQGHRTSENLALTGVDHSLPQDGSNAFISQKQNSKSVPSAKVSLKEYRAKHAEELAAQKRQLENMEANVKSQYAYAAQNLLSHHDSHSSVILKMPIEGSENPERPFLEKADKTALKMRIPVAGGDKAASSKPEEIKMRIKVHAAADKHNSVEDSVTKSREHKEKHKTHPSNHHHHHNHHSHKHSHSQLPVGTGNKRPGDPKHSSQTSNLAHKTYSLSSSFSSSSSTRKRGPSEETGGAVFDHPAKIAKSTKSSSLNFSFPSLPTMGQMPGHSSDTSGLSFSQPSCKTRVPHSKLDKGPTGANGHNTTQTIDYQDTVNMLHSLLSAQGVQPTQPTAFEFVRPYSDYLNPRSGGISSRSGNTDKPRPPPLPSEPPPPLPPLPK

| IC50 (DU145 cells) | IC50 (CDK9/CycT1) | Selectivity high ATP CDK9 over high ATP CDK2: IC50 (high ATP CDK2)/IC50 (high ATP CDK9) (CDK9/CycT1) | SMILES |
| --- | --- | --- | --- |
| 55 nM | 3.4 nM | 13.2 | CCOC(=O)N=S(C)(=O)Cc1cc2nc(c1)OCCCOc1cc(F)ccc1-c1cc(ncc1F)N2 (racemic) [Example 20, (rac)-ethyl [{[15,19-difluoro-3,4-dihydro-2H,11H-10,6-(azeno)-12,16-(metheno)-1,5,11,13-benzodioxadiazacyclooctadecin-8-yl]methyl}(methyl)oxido-λ^6-sulfanylidene]carbamate] |
| 40 nM | 2.7 nM | 71.6 | CS(=O)(=O)N=S(C)(=O)Cc1cc2nc(c1)OCCCOc1cc(F)ccc1-c1cc(ncc1F)N2 (racemic) [Example 22, (rac)-N-[{[15,19-difluoro-3,4-dihydro-2H,11H-10,6-(azeno)-12,16-(metheno)-1,5,11,13-benzodioxadiazacyclooctadecin-8-yl]methyl}(methyl)oxido-λ^6-sulfanylidene]methanesulfonamide] |
| 17 nM | 2.3 nM | 14.9 | CS(=O)(=O)Cc1cc2nc(c1)OCCCOc1cc(F)ccc1-c1cc(ncc1F)N2 [Example 8, 15,19-difluoro-8-[(methylsulfonyl)methyl]-3,4-dihydro-2H,11H-10,6-(azeno)-12,16-(metheno)-1,5,11,13-benzodioxadiazacyclooctadecine] |
| 30 nM | 3.2 nM | 35.3 | C[S+]([O-])Cc1cc2nc(c1)OCCCCOc1cc(F)ccc1-c1cc(ncc1F)N2 (racemic) [Example 13, (rac)-16,20-difluoro-9-[(methylsulfinyl)methyl]-2,3,4,5-tetrahydro-12H-11,7-(azeno)-13,17-(metheno)-1,6,12,14-benzodioxadiazacyclononadecine] |
| 11 nM | 1.6 nM | 19.6 | C[S+]([O-])Cc1cc2nc(c1)OCCCOc1cc(F)ccc1-c1cc(ncc1F)N2 (racemic) [Example 4, (rac)-15,19-Difluoro-8-[(methylsulfinyl)methyl]-3,4-dihydro-2H,11H-10,6-(azeno)-12,16-(metheno)-1,5,11,13-benzodioxadiazacyclooctadecine] |
| 26 nM | 2.9 nM | 21.7 | CC(=O)N=S(C)(=O)Cc1cc2nc(c1)OCCCOc1cc(F)ccc1-c1cc(ncc1F)N2 (racemic) [Example 18, (rac)-N-[{[15,19-difluoro-3,4-dihydro-2H,11H-10,6-(azeno)-12,16-(metheno)-1,5,11,13-benzodioxadiazacyclooctadecin-8-yl]methyl}(methyl)oxido-λ^6-sulfanylidene]acetamide] |
| 31 nM | 5.9 nM | 12.7 | CS(=O)(Cc1cc2nc(c1)OCCCOc1cc(F)ccc1-c1cc(ncc1F)N2)=NC(=O)OCCCl (racemic) [Example 21, (rac)-2-chloroethyl [{[15,19-difluoro-3,4-dihydro-2H,11H-10,6-(azeno)-12,16-(metheno)-1,5,11,13-benzodioxadiazacyclooctadecin-8-yl]methyl}(methyl)oxido-λ^6-sulfanylidene]carbamate] |
| – | 65 nM | >307 | CSCc1cc2nc(c1)OCCOc1cc(F)ccc1-c1cc(ncc1F)N2 [Example 9, 14,18-Difluoro-7-[(methylsulfanyl)methyl]-2,3-dihydro-10H-9,5-(azeno)-11,15-(metheno)-1,4,10,12-benzodioxadiazacycloheptadecine] |

From patent US9963464B2, “Macrocyclic compounds” (Bayer Pharma Aktiengesellschaft, priority 2014, dated 2018)
